# Measured values reported in patent publication US11292803B2, “Bioreducible N-oxide-based probes for imaging of hypoxia” (THE BOARD OF TRUSTEES OF THE UNIVERSITY OF ILLINOIS, priority 2018, dated 2022).
# Columns and labels:
# rat liver microsomes = experiment: PA response after rat liver microsome incubation, tissue-mimicking phantom; type: biochemical; conditions: 2 h incubation with RLM, quenched with acetonitrile
# Experimental: FIG. 4. Hypoxia-selective response of HyP-1 in vitro. […] Dashed lines indicate positioning of FEP tubes.
# Tissue phantoms were prepared by suspending agarose (4 g) in a solution of 2% milk (2 mL) and deionized H2O (78 mL). The suspension was then heated in a microwave oven until a viscous gel was produced (30-50 seconds). The gel was transferred to a mold made by drilling holes through a 50 mL centrifuge tube and placing FEP tubes (0.08″ diameter) through the holes to create spaces for samples. After cooling the gel for a minimum of 3 hours, the solidified phantom was removed from the mold and cut with a razor blade such that the distance from the sample holes to the phantom's edges was 1.0 cm. To image samples, sample solutions were pipetted into FEP tubing (0.08″ diameter, cut to 10 cm long) which was inserted into the phantom and sealed by folding over the ends and securing with additional tubing (0.12″ diameter, cut to 5 mm long). Images were acquired using the Step and Shoot mode with 120 angles and 10 pulses per angle. Data was analysed using OsiriX Lite software (Version 8.0). Thick slab processing was used to visualize accumulated signal over 5 mm. ROIs of equal area were drawn around areas containing signal, and mean PA signal in each ROI was recorded.
# [1] = Chemostability under ambient light and temperature; type: physicochemical; conditions: 10 μM solution, up to 5 days
# Experimental: FIG. 11. Fluorescence intensity (Ex.=670 nm) of HyP-1 (2 μM) at the indicated time points during extended incubation in 0.1 M potassium phosphate buffer (pH 7.4, 0.1% v/v CrEL) under ambient light and temperature. Represented as mean±SD (n=3).
# (§1) In addition to Fe(II), the response of HyP-1 to a variety of alkali, alkaline earth and transition metals was also determined. […] To further evaluate the stability of HyP-1, a 10 μM solution of the probe was exposed to ambient light and temperature for up to 5 days. Additionally, a 10 μM solution of HyP-1 supplemented with human plasma was incubated at 37° C. for 3 hours. […] As mentioned previously, a major limitation of 2-nitroimidazole-based hypoxia probes is their susceptibility to oxygen-independent reduction via two-electron processes, such as by bacterial nitroreductases. […] Finally, the photostability of both HyP-1 and red-HyP-1 was evaluated via continuous PA image acquisition at 770 nm over the course of 1 hour.
# E. coli cell lysates = experiment: Incubation with bacterial cell lysates; type: biochemical; conditions: 37° C., 2 h
# Experimental: FIG. 15. […] For the nitroreductase experiment, HyP-1 (2 μM) was incubated in the presence of nitroreductase (0.5 μg/mL) and NADH (100 μM) in 0.1 M potassium phosphate buffer (pH 7.4) at 37° C. for 2 h. For the bacterial experiment, bacteria were grown overnight, and cells were lysed via sonication. The suspension was centrifuged at 4000 rpm for 10 min, and the supernatant was removed. HyP-1 (2 μM) was incubated with cell lysate solution (1 mL) at 37° C. for 2 h.
# as §1
# [2] = tested on: 4T1 murine mammary carcinoma cells; experiment: Ratiometric fluorescence microscopy in living cells; type: cell-based; conditions: 4T1 cells, epifluorescence microscope Cy7/Cy5, after 6 hours
# Experimental: After establishing excellent selectivity and responsiveness to hypoxic conditions in vitro, the performance of HyP-1 in living cells was evaluated before moving to in vivo studies. 4T1 murine mammary carcinoma cells were treated with a […] solution of HyP-1 and incubated at 37° C. either in a standard atmosphere containing 20% oxygen (normoxic conditions), or in an airtight chamber containing <0.1% oxygen (hypoxic conditions). Imaging was performed at 2, 4 and 6 hours using an epifluorescence microscope equipped with Cy5 and Cy7 filter sets to visualize HyP-1 and red-HyP-1, respectively (FIG. 5a).
# Authenticated 4T1 cells were purchased from ATCC. Cells were grown in RPMI 1640 medium supplemented with 10% fetal bovine serum. Cells were cultured at 37° C. in 5% CO2 and 20% 02 for normoxic conditions. Hypoxic cell culture was performed by incubating cells in a sealed container with a Mitsubishi AnaeroPack™ anaerobic gas generator. Hypoxic conditions were verified with the use of a Mitsubishi RT Anaero-Indicator.
# For fluorescence microscopy, cells were plated in 4-well chamber slides at an initial density of 1×10^4 cells/mL and allowed to grow until 60-80% confluent (approximately 6 days). Media was removed and cells were washed with PBS. […] Images were obtained using Cy5 and Cy7 filter cubes and analysed using ImageJ software (Version 1.50i).
# 4T1 tumour allografts = experiment: In vivo PA imaging of hypoxic tumour model; set-up: species or system BALB/c mice; conditions: tail vein injection 0.3 mg/kg; 770 nm
# Experimental: Next, attention was turned to the application of HyP-1 for hypoxia detection using PA imaging. HyP-1 (50 μL, 0.3 mg/kg) was administered to tumour-bearing mice intravenously via tail vein injection, and PA images of both the tumour-bearing and control flanks were acquired at 1, 3 and 5 hours following injection. […] The 3D-reconstructions of the PA images enabled visualization of specific areas within the tumour where signal was highest, a significant improvement compared to the minimally resolved signal obtained using fluorescence imaging (FIG. 6b). It was hypothesized that these areas of high intensity correlate with the highest concentrations of red-HyP-1, and therefore with regions of most severe hypoxia.
# All in vivo imaging experiments were performed with the approval of the Institutional Animal Care and Use Committee of the University of Illinois at Urbana-Champaign, following the principles outlined by the American Physiological Society on research animal use. […]
# Prior to imaging, hair was removed from the lower body half by shaving and treating with a topical hair removal cream. […] Data was analysed using OsiriX software. […] ROIs of equal area were drawn to include all visible signal in the image, and mean PA signal in each ROI was recorded. Change in PA signal was calculated by subtracting signal from images taken prior to injection from those at given time points.
# ischemic hindlimb tissue = experiment: In vivo PA imaging of hindlimb ischemia model; set-up: species or system BALB/c mice; conditions: intramuscular 50 μL, 50 μM; 1 hour after injection
# Experimental: After observing the hypoxia-mediated response of HyP-1 in the hindlimb ischemia model, attention was turned to detecting this response using PA imaging. As described above, surgical ligation was employed to induce ischemia, and HyP-1 (50 μL, 50 μM) was administered via intramuscular injection.
# All in vivo imaging experiments were performed with the approval of the Institutional Animal Care and Use Committee of the University of Illinois at Urbana-Champaign, following the principles outlined by the American Physiological Society on research animal use. Female mice (5-6 weeks old) were acquired from The Jackson Laboratory. […] Animals that underwent unsuccessful surgery as determined by laser Doppler perfusion imaging were excluded from analysis.
# Prior to imaging, hair was removed from the lower body half by shaving and treating with a topical hair removal cream. Mice were positioned on their sides such that the area to be imaged was directly above the light source. Images were acquired using the Step and Shoot mode with 120 angles and 30 pulses per angle. Data was analysed using OsiriX software. […] ROIs of equal area were drawn to include all visible signal in the image, and mean PA signal in each ROI was recorded. Change in PA signal was calculated by subtracting signal from images taken prior to injection from those at given time points.
compound,measurement,setting,value
"CC[N+]([O-])(CC)c1ccc(-c2cc(-c3ccccc3)c3n2[B-](F)(F)[N+]2=C(c4ccc(OC)cc4)C=C(c4ccccc4)C2=N3)cc1 [HyP-1, 4-(5,5-difluoro-7-(4-methoxyphenyl)-1,9-diphenyl-5H-5λ^4,6λ^4-dipyrrolo[1,2-c:2′,1′-f][1,3,5,2]triazaborinin-3-yl)-N,N-diethylaniline oxide]","PA signal (770 nm), hypoxic reaction versus normoxic",rat liver microsomes,4 fold
same,decomposition under ambient light and temperature,[1],no substantial decomposition
same,conversion to red-HyP-1,E. coli cell lysates,minimal conversion
same,"ratiometric fluorescence response, hypoxic versus normoxic control",[2],1.6 fold
same,PA signal increase in control flank,4T1 tumour allografts,no increase
same,mean PA signal increase in tumour tissue,4T1 tumour allografts,20.5 a.u.
same,"PA signal enhancement, ischemic tissue versus control leg",ischemic hindlimb tissue,3.1 fold
